The text below walks through data of PMC5987196 (ACS infectious diseases, 2017).

Where two headings read alike, the source gives them in different places.

Experiment [1] relates to AB0057 A. baumannii spp. clinical strain. Put plainly: Disk susceptibility assay. The experiment is classed as cell-based. As to conditions: zone size.
The subject of experiment [2] is E. coli carrying blaADC37 encoded in pBC SK (−). The experiment can be described thus: MIC broth microdilution with ceftazidime plus BATSI. The format is cell-based, Escherichia coli DH10B. As to conditions: for MIC broth dilution: CAZ MIC with 10 μg/mL compound, CAZ varied from 0 to 128 μg/mL. (Dilution methods test growth across graded concentrations, often in twofold steps.)

Experiment [3] shares this test system. The experiment can be described thus: Disk susceptibility assay. The format is cell-based, Escherichia coli DH10B. As to conditions: 10 μg of BAI and 10 μg of ceftazidime per disk, zone size.
In experiment [4] the target is T1, ADC-7 (Acinetobacter baumannii, UniProt Q6DRA1). Put plainly: Competition kinetics with nitrocefin against ADC-7 β-lactamase. The experiment is classed as biochemical.
In the next experiment the target is Pseudomonas PDC-3. Conditions: class C enzyme lacking Arg340; cited from earlier work.
Another experiment relates to E. coli AmpC. Conditions: class C enzyme lacking Arg340; cited from earlier work.
Experiment [5] concerns the target T1, ADC-7. Conditions: previously reported value for the lead compound; cited from earlier work.
The mark [6] stands for this setting: 10 μg of BAI and 10 μg of sulbactam per disk.

Take `CC1(C)[C@H](C(=O)O)N2C(=O)C[C@H]2S1(=O)=O` [SUL, sulbactam, reference compound]: the disk assay result is reported as “SUL 6 mm” in experiment [1] (SUL alone, 10 μg) and 6 mm in experiment [1] (SUL alone, 10 μg, listed as sulbactam).

Broadly, the MIC is the lowest concentration found to suppress growth. Consider `CC(C)(O/N=C(\C(=O)N[C@@H]1C(=O)N2C(C(=O)[O-])=C(C[n+]3ccccc3)CS[C@H]12)c1csc(N)n1)C(=O)O` [CAZ, ceftazidime, reference compound], for which the MIC in experiment [2] (Escherichia coli, read-out: MIC broth dilution) was 32 µg/mL.

On to `O=C(O)Cc1cn(C[C@H](NC(=O)Cc2cccs2)B(O)O)nn1` [3b, (1R)-2-(4-carboxymethyl-[1,2,3]triazol-1-yl)-(2-thienylace-tylamino)ethaneboronic acid], for which the disk assay in experiment [1] (setting [6]) came to 10 mm; in experiment [3] it was 18 mm. Moreover, the “less activity relative to 3a” value at ADC-7 [4] (Ki compared with 3a) stood at 3 fold. The MIC broth dilution in experiment [2] turned out to be 2 µg/mL.

With “(1R)-2-(4-carboxamido-[1,2,3]triazol-1-yl)-1-(2-thienylacetylamino)ethaneboronate [3d]”, the disk assay is given as 10 mm in experiment [1] (setting [6]) and 18 mm in experiment [3]. In addition, in experiment [2], the MIC broth dilution is 4 µg/mL.

As usually defined, the Ki is the dissociation constant of the complex between target and ligand, obtained from inhibition or displacement. As for `O=C(Cc1cccs1)N[C@H](B(O)O)c1cccc(C(=O)O)c1` [SM23, reference compound], the disk assay in experiment [1] (setting [6]) stood at 12 mm; in experiment [3], 25 mm. The Ki was 4 nM on Pseudomonas PDC-3 and 1 nM with E. coli AmpC. Also, the MIC broth dilution in experiment [2] was 1 µg/mL.

With `O=C(Cc1cccs1)N[C@@H](Cn1cc(C(=O)O)nn1)B(O)O` [3a, (1R)-2-[4-carboxy-[1,2,3]triazol-1-yl]-1-(2-thienylace-tylamino)ethaneboronic acid], the disk assay is recorded as 16 mm in experiment [1] (setting [6]) and 26 mm in experiment [3]. In addition, the MIC broth dilution in experiment [2] was found to be 1 µg/mL. At ADC-7 [5], the Ki was 44 nM.

In the case of `O=C(Cc1cccs1)N[C@@H](Cn1cc(-c2cccc(-c3nn[nH]n3)c2)nn1)B(O)O` [3j, (1R)-2-[4-(3-(2H-tetrazol-5-yl)phenyl)-[1,2,3]triazol-1-yl]-1-(2-thienylacetylamino)ethaneboronate], the disk assay in experiment [1] (setting [6]) is listed as 6 mm; in experiment [3], 15 mm. For the same compound, the MIC broth dilution in experiment [2] turned out to be 8 µg/mL.

On to `O=C(Cc1cccs1)N[C@@H](Cn1cc(-c2nn[nH]n2)nn1)B(O)O` [3h, (1R)-2-[4-(2H-tetrazol-5-yl)-[1,2,3]triazol-1-yl]-1-(2-thienylacetylamino)ethaneboronic acid], for which the disk assay is on record as 10 mm in experiment [1] (setting [6]) and 23 mm in experiment [3].

For the compound “(1R)-2-(4-idroxycarbamoyl-[1,2,3]triazol-1-yl)-1-(2-thienylacetylamino)ethaneboronic acid [3e]”, the disk assay in experiment [1] (setting [6]) was 8 mm; in experiment [3], 16 mm. Moreover, the MIC broth dilution in experiment [2] worked out at 2 µg/mL.

`O=C(Cc1cccs1)N[C@@H](Cn1cc(-c2cccc(C(=O)O)c2)nn1)B(O)O` [3c, (1R)-2-[4-(3-carboxyphenyl)-[1,2,3]triazol-1-yl]-1-(2-thienylacetylamino)ethaneboronic acid]: the values for the disk assay in experiment [1] (setting [6]) and in experiment [3] were 15 mm and 24 mm, respectively. This compound showed a Ki on ADC-7 [4] of 46 ± 3 nM.

As to `O=C(Cc1cccs1)N[C@@H](Cc1cccc(C(=O)O)c1)B(O)O` [EC04, reference compound], the disk assay in experiment [1] (setting [6]) stood at 11 mm; in experiment [3] it was 21 mm. The Ki at Pseudomonas PDC-3 was 220 nM; with E. coli AmpC it was 1 nM. In addition, in experiment [2], the MIC broth dilution came to 2 µg/mL.
